Data published in ChEMBL document CHEMBL1201862, “PubChem BioAssay data set” (2004).
Values belong to the compound of their own block, whether it stands above or below them. Active and inactive are the calls of the source.

What was measured:
[1] = Trypanosoma cruzi growth suppression in host cells – NIH3T3 host cells, beta-gal luminescence, confirmation (AID 2044); format: functional, cell-based;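 further: intracellular parasites grown in NIH/3T3 mouse fibroblasts as host cells; luminescent beta-galactosidase reporter signal from transgenic T. cruzi replicating inside host cells; inhibitors lower the luminescence signal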
[2] = NIH3T3 cell viability loss – ATP luminescence, mouse fibroblasts, counter-screen, dose response (AID 2010); format: functional, cell-based;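 further: cells exposed to compound for about 90 hours before reading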
Cytochrome P450 2C19 = Cytochrome P450 2C19 (Homo sapiens, UniProt P33261); assay: Cytochrome panel assay with activity outcomes. Panel member name: p450-cyp2c19 Compounds with AC50 equal or less than 10 uM are considered active; format: functional; conditions: read-out: AC50
Cytochrome P450 2C9 = Cytochrome P450 2C9 (Homo sapiens, UniProt P11712)
Cytochrome P450 2D6 = Cytochrome P450 2D6 (Homo sapiens, UniProt P10635);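 further: CYP2D6 member of a cytochrome P450 panel assay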
Cytochrome P450 3A4 = Cytochrome P450 3A4 (Homo sapiens, UniProt P08684);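 further: CYP3A4 tested as one member of a cytochrome P450 panel screen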
[3] = biological target: T1, Heat shock factor protein 1 (Mus musculus, UniProt P38532); assay: decrease of HSF1-responsive luciferase luminescence – cell-based, NIH3T3, dose retest, confirmation (AID 2382); format: functional;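 further: NIH3T3 fibroblasts with HSF1-driven luciferase reporter stressed by proteasome inhibitor MG132; luminescence from HSF1-driven luciferase expression after 8 hours of MG132 stress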
T1 sequence (P38532 whole entry): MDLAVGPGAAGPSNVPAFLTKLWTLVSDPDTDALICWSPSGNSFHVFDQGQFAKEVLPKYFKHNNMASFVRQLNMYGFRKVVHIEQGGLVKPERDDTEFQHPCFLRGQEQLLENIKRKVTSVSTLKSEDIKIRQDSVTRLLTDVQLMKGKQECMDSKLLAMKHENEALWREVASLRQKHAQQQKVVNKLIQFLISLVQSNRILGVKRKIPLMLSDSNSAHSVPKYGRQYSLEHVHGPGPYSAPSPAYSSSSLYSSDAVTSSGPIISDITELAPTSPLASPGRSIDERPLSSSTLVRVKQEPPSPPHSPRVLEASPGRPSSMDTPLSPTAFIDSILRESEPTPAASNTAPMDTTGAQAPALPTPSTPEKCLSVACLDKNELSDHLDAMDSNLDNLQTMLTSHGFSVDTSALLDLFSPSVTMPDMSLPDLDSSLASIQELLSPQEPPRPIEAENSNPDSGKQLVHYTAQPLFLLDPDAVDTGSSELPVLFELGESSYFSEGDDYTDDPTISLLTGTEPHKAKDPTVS

Chain of Cytochrome P450 2C9 (P11712 whole entry): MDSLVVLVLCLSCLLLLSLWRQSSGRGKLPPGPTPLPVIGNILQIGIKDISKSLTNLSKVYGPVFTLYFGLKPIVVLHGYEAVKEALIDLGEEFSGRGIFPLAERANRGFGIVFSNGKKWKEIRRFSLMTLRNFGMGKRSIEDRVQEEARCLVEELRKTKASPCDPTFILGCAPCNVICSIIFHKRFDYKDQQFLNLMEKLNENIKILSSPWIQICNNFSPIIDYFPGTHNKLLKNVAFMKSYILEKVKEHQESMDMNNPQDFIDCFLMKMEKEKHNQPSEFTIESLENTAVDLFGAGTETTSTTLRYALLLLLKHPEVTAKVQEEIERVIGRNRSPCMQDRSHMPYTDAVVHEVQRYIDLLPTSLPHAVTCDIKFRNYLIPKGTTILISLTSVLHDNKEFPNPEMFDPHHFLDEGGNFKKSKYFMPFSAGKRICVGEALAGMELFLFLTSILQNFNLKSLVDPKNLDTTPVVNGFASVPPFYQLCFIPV
Chain of Cytochrome P450 3A4 (P08684 whole entry): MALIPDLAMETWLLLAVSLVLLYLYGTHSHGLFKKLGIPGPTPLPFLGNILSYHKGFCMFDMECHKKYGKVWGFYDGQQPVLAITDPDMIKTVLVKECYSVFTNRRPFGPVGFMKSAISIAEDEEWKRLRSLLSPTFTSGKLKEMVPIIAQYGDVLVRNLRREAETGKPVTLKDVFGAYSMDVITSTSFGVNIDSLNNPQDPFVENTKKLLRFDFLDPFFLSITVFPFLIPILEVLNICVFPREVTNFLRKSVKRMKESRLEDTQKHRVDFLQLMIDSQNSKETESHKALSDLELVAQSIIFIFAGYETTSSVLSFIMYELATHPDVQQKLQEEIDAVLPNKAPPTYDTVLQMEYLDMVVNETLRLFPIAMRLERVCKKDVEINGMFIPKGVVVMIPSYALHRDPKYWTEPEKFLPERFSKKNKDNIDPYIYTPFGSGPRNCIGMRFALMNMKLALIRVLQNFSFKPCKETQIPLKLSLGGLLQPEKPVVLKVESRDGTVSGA
Chain of Cytochrome P450 2D6 (P10635 whole entry): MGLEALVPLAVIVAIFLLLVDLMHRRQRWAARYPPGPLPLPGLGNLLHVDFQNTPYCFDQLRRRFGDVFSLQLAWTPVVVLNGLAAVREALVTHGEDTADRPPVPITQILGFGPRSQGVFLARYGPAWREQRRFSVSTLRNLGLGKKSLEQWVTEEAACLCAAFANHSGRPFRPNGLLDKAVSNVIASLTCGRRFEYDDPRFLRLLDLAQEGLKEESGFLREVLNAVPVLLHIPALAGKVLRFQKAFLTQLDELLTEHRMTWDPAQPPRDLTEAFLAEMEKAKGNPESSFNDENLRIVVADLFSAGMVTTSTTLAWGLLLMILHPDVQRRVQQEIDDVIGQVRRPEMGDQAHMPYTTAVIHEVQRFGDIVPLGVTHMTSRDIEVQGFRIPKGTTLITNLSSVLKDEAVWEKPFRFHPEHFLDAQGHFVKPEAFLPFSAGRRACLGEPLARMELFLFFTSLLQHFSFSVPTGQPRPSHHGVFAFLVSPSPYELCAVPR
Chain of Cytochrome P450 2C19 (P33261 whole entry): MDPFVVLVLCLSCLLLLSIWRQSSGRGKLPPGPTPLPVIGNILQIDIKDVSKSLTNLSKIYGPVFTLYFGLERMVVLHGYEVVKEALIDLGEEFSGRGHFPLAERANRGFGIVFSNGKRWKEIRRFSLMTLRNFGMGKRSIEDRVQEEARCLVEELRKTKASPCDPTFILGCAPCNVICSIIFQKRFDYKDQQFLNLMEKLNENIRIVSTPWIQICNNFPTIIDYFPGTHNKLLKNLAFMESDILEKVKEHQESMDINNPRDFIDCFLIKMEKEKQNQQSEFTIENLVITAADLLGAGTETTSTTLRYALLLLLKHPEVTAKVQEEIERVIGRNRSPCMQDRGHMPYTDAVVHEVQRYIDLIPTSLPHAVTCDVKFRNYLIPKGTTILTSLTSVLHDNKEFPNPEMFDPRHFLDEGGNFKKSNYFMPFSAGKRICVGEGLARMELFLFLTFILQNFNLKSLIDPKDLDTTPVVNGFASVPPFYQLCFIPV

SMILES: COc1ccccc1CN1CCCC(N2CCN(c3ccc(F)cc3)CC2)C1 (stereo not drawn)
EC50 [1]: 0.253 µM (active)
EC50 [2]: 10.1 µM (active)

AC50 (Cytochrome P450 2C19): 2.82 µM (inconclusive)
AC50 (Cytochrome P450 2C9): 2.51 µM (inconclusive)
SMILES: CCOc1ccc(OCC)c(NC(=O)C2CCCN(S(=O)(=O)c3cccs3)C2)c1 (stereo not drawn)

AC50 (Cytochrome P450 2D6): 39.8 µM (inconclusive)
AC50 (Cytochrome P450 2C9): 22.4 µM (inconclusive)
SMILES: O=C(CN(CC1CCCO1)C(=O)CNS(=O)(=O)c1ccc(Cl)cc1)NCCc1ccccc1 (stereo not drawn)

SMILES: CCCc1cc2c(n1CCO)C(C)C1CN(C(=O)c3ccccc3)C(C)(C(=O)OC)C21 (stereo not drawn)
AC50 (Cytochrome P450 2C19): 3.16 µM (inconclusive)

AC50 (Cytochrome P450 2D6): 14.1 µM (inconclusive)
SMILES: CCN1C(=O)C(CC(=O)Nc2ccc(OC)cc2)N(Cc2cccs2)C1=S (stereo not drawn)

SMILES: Cc1c(C)n(CCCN(C)C)c2ncnc(NC3CCCCC3)c12
EC50 [1]: 0.603 µM (active)
EC50 [2]: > 60 µM (not active)

AC50 (Cytochrome P450 2D6): 25.1 µM (inconclusive)
SMILES: COc1cccc(C(=O)Nc2nc3c(s2)CN(C)CC3)c1

SMILES: O=C(CCN1CCN(C/C=C/c2ccccc2)CC1)Nc1ccccc1
EC50 [1]: 1.95 µM (active)
EC50 [2]: > 60 µM (not active)

AC50 (Cytochrome P450 3A4): 25.1 µM (inconclusive)
SMILES: Cn1c(SC2CCCCC2=O)nnc1-c1ccncc1 (stereo not drawn)

SMILES: CN1CCN(NC(=O)c2cc([N+](=O)[O-])cc([N+](=O)[O-])c2)CC1
EC50 [1]: 2.33 µM (active)
EC50 [2]: > 30 µM (not active)

EC50 [3]: > 195 µM (not active)
SMILES: COc1ccc2nc3c(O)n(CCCN4CCOCC4)cnc-3c2c1

EC50 [3]: > 195 µM (not active)
SMILES: CCc1ccc(NC(=O)CSc2ccc(-c3cccnc3)nn2)cc1

EC50 [3]: > 195 µM (not active)
SMILES: COCCN(C(=O)COC(=O)/C=C/c1ccc(C(F)(F)F)cc1)c1c(N)n(Cc2ccccc2)c(=O)[nH]c1=O

SMILES: CCOc1ccccc1CN1CCN(Cc2nc3ccccc3s2)CC1CCO (stereo not drawn)
EC50 [1]: 1.16 µM (active)
EC50 [2]: > 60 µM (not active)

SMILES: N#Cc1ccccc1NC(=O)c1ccccc1OCC(=O)Nc1ccc2c(c1)oc1ccccc12
EC50 [1]: 2.85 µM (active)
EC50 [2]: 47.3 µM (active)

AC50 (Cytochrome P450 2C9): 22.4 µM (inconclusive)
SMILES: COc1ccc(CCNC(=O)C2CCN(S(=O)(=O)N3CC(C)CC(C)C3)CC2)cc1OC (stereo not drawn)

AC50 (Cytochrome P450 3A4): 25.1 µM (inconclusive)
SMILES: COCCn1c(=O)c(-c2ccc(OC)cc2)nc2cnc(OCc3ccccc3)nc21

AC50 (Cytochrome P450 3A4): 2.51 µM (inconclusive)
AC50 (Cytochrome P450 2C9): 6.31 µM (inconclusive)
SMILES: Nc1ccccc1S[C@@H](C[N+](=O)[O-])c1ccc2c(c1)OCO2

EC50 [3]: > 195 µM (not active)
SMILES: Cc1ccc(C(=O)Nc2ccccc2C(=O)O)cc1S(=O)(=O)NCc1ccccc1

EC50 [3]: > 195 µM (not active)
SMILES: Cc1cc([N+](=O)[O-])nn1CC(=O)NCc1nc2ccccc2[nH]1

SMILES: Clc1ccc(OCCn2ccnc2)cc1Cl
EC50 [1]: 2.49 µM (active)
EC50 [2]: > 60 µM (not active)

EC50 [3]: > 195 µM (not active)
SMILES: O=C(COC(=O)c1cnccn1)Nc1ccc(Cl)cn1

EC50 [3]: > 195 µM (not active)
SMILES: CCCCCCN1CC(=O)N2[C@@H](Cc3c([nH]c4ccccc34)C2(C)C)C1=O

AC50 (Cytochrome P450 2C9): 39.8 µM (inconclusive)
SMILES: CCOC(=O)c1ccc(S(=O)(=O)N2CCN(C)CC2)cc1

EC50 [3]: > 195 µM (not active)
SMILES: COc1ccc(NC(=O)Cn2c(=O)n(Cc3ccco3)c(=O)c3ccccc32)cc1

AC50 (Cytochrome P450 2C9): 0.158 µM (inconclusive)
SMILES: O=C(NCCc1ccccn1)c1cc(C(=O)C2CCCCC2)c[nH]1

AC50 (Cytochrome P450 3A4): 31.6 µM (inconclusive)
AC50 (Cytochrome P450 2C9): 25.1 µM (inconclusive)
SMILES: COn1c(-c2ccccc2)nc2c1CCc1nonc1-2

SMILES: CCN1CCCc2cc(CN(CCN3CCOCC3)C(S)=Nc3ccccc3OC)ccc21
EC50 [1]: 1.53 µM (active)
EC50 [2]: > 60 µM (not active)

EC50 [3]: > 195 µM (not active)
SMILES: COc1ccccc1NC(=O)C1CCN(C(=O)C2CC(=O)N(c3ccc(C)cc3)C2)CC1 (stereo not drawn)

EC50 [3]: > 195 µM (not active)
SMILES: N#CC1=C(N)N(c2ccc(Oc3ccccc3)cc2)C(=O)C1

AC50 (Cytochrome P450 3A4): 28.2 µM (inconclusive)
SMILES: Cc1ccc(C(=N)NOC(=O)Cc2cccs2)cc1

AC50 (Cytochrome P450 2C9): 11.2 µM (inconclusive)
SMILES: Cc1ccc(CNC(=O)C2CCCN2C(=O)NCc2ccccc2)cc1 (stereo not drawn)

EC50 [3]: > 195 µM (not active)
SMILES: CC(=O)Nc1ccc(OS(=O)(=O)c2ccccc2C)cc1

SMILES: O=C(C1=C[C@H](c2csc3ccccc23)C[C@H](OCc2ccc(CO)cc2)O1)N1CCN(Cc2ccc3c(c2)OCO3)CC1
EC50 [1]: 0.137 µM (active)
EC50 [2]: > 60 µM (not active)

AC50 (Cytochrome P450 2C19): 0.0501 µM (inconclusive)
SMILES: O[C@@H](COc1cccc2ccccc12)CN1CCOCC1
